# What was measured:
# [1] = system: Clostridium ljungdahlii; assay: Example 1 redone at shaking speed 100 min-1 (Example 1b); format: cell-based
# Procedure: (§1) For the production, anaerobic carbonate buffer (adjusted with KOH 1.4 g/L) was used. The only addition to the buffer was L-cysteine HCl at different concentrations.
# (§2) For identical autotrophic productions, 500 mL septum bottles were filled with 100 mL carbonate buffer and shaken at 150 min^−1 in an open shaking water bath shaker Innova 3100 by New Brunswick Scientific. The reactions were carried out at 37° C. with manual control of the pH. Once the pH dropped below 5.5, KOH was replenished from a stock solution of 140 g/L. In the present experiments the pH in both reactors were checked at the following points in time 50.3 h, 73.3 h and corrected by the addition of each 1.4 g/L KOH manually.
# (§3) The reactors were inoculated with a synthesis gas mixture of 67% H2 and 33% CO2 and pressure of 0.8 bar applied. To replenish the depleted gas, the gas above the reactors was replaced once a day and again the pressure brought to 0.8 bars.
# (§4) The reactor was started by seeding autotrophic grown cells at an OD of 0.2. The preculture was carried out continuously in a 1 L bottle with 500 mL complex medium. The complex medium consisting of 1 g/lNH4Cl, 0.1 g/l KCl, 0.2 g/l MgSO4 ×7 H2O, 0.8 g/l NaCl, 0.1 g/l KH2PO4, 20 mg/l CaCl2 ×2 H2O, 20 g/l MES, 1 g/l yeast extract, 0.4 g/L L-Cysteine-HC1, 20 mg/l nitrilotriacetic acid, 10 mg/l MnSO4×H2O, 8 mg/l (NH4)2Fe(SO4)2×6 H2O, 2 mg/l CoCl2×6 H2O, 2 mg/l ZnSO4 33 7 H2O, 0.2 mg/l CuCl 2 33 2 H2O, 0.2 mg/l Na2MoO4×2 H2O, 0.2 mg/l NiCl2×6 H2O, 0.2 mg/l Na2SeO4, 0.2 mg/l Na2WO4×2 H2O, 20 μg/l d-Biotin, 20 μg/l folic acid, 100 μg/l pyridoxine HCl, 50μg/l thiamine-HCl×H2O, 50 μg l of riboflavin, 50 μg/l nicotinic acid, 50 μg/l Ca-pantothenate, 1 μg/l vitamin B12, 50μg/l p-aminobenzoate, 50 μg/l lipoic acid. The culture was then gassed continuously with synthesis gas (67% H2, 33% CO2) at a flow rate of 3 l/h over a filter with pore size 10 microns. The cells were in late log phase growth at an OD of 0.37 and where anaerobically centrifuged (4500 rpm, 4300 g, 20° C., 10 min). The supernatant was discarded and the cell pellet resuspended in 10 ml carbonate buffer. The prepared cells were then used to inoculate the actual tests.
# (§5) When sampling each 5 ml sample was removed for determination of OD600, pH and the product spectrum. The determination of the product concentration was performed using quantitative 1H-NMR spectroscopy. As an internal quantification standard sodium trimethylsilylpropionate was used (T(M)SP).
# The example 1 above was redone with only a difference in the shaking speed on the septum bottles for autotrophic productions. The shaking speed used was 100 min^−1.
# A reporting error in example 1 was noticed where the results of cysteine for reactor 1 and 2 were switched.
# [2] = system: Clostridium ljungdahlii; assay: Autotrophic production of ethanol and acetate in carbonate buffer on synthesis gas with varying L-cysteine HCl (Example 1); format: cell-based
# Procedure: as §1, §2, §3, §4, §5
# [3] = reactor 1, 0.1 g/L L-Cysteine-HCl, 100 min-1, 0.0 h
# [4] = reactor 1, 0.1 g/L L-Cysteine-HCl, 100 min-1, 24.5 h
# [5] = reactor 1, 0.1 g/L L-Cysteine-HCl, 100 min-1, 50.3 h
# [6] = reactor 1, 0.1 g/L L-Cysteine-HCl, 100 min-1, 73.3 h
# [7] = reactor 1, 0.1 g/L L-Cysteine-HCl, 100 min-1, 92.3 h
# [8] = reactor 2, 0.4 g/L L-Cysteine-HCl, 100 min-1, 0.0 h
# [9] = reactor 2, 0.4 g/L L-Cysteine-HCl, 100 min-1, 24.5 h
# [10] = reactor 2, 0.4 g/L L-Cysteine-HCl, 100 min-1, 50.3 h
# [11] = reactor 2, 0.4 g/L L-Cysteine-HCl, 100 min-1, 73.3 h
# [12] = reactor 2, 0.4 g/L L-Cysteine-HCl, 100 min-1, 92.3 h
# [13] = reactor 1, 0.1 g/L L-Cysteine-HCl, 150 min-1, 0.0 h
# [14] = reactor 1, 0.1 g/L L-Cysteine-HCl, 150 min-1, 24.5 h
# [15] = reactor 1, 0.1 g/L L-Cysteine-HCl, 150 min-1, 50.3 h
# [16] = reactor 1, 0.1 g/L L-Cysteine-HCl, 150 min-1, 73.3 h
# [17] = reactor 1, 0.1 g/L L-Cysteine-HCl, 150 min-1, 92.3 h
# [18] = reactor 2, 0.4 g/L L-Cysteine-HCl, 150 min-1, 0.0 h
# [19] = reactor 2, 0.4 g/L L-Cysteine-HCl, 150 min-1, 24.5 h
# [20] = reactor 2, 0.4 g/L L-Cysteine-HCl, 150 min-1, 50.3 h
# [21] = reactor 2, 0.4 g/L L-Cysteine-HCl, 150 min-1, 73.3 h
# [22] = reactor 2, 0.4 g/L L-Cysteine-HCl, 150 min-1, 92.3 h
smiles,measurement,setting,value
"Cl.N[C@@H](CS)C(=O)O [L-Cysteine-HCl, L-cysteine hydrochloride]",Acetate (NMR),[1]; [3],13 mg/L
same,Ethanol (NMR),[1]; [3],6 mg/L
same,OD600,[1]; [3],0.25
same,Acetate (NMR),[1]; [4],1418 mg/L
same,Ethanol (NMR),[1]; [4],19 mg/L
same,OD600,[1]; [4],0.25
same,Δp,[1]; [4],0.6 bar
same,Acetate (NMR),[1]; [5],2556 mg/L
same,Ethanol (NMR),[1]; [5],130 mg/L
same,OD600,[1]; [5],0.30
same,Δp,[1]; [5],0.6 bar
same,OD600,[1]; [6],0.30
same,Δp,[1]; [6],0.6 bar
same,Acetate (NMR),[1]; [7],6960 mg/L
same,Ethanol (NMR),[1]; [7],321 mg/L
same,OD600,[1]; [7],0.26
same,Δp,[1]; [7],0.4 bar
same,Acetate (NMR),[1]; [8],15 mg/L
same,Ethanol (NMR),[1]; [8],8 mg/L
same,OD600,[1]; [8],0.24
same,Acetate (NMR),[1]; [9],2331 mg/L
same,Ethanol (NMR),[1]; [9],27 mg/L
same,OD600,[1]; [9],0.23
same,Δp,[1]; [9],0.6 bar
same,Acetate (NMR),[1]; [10],3197 mg/L
same,Ethanol (NMR),[1]; [10],128 mg/L
same,OD600,[1]; [10],0.26
same,Δp,[1]; [10],0.5 bar
same,OD600,[1]; [11],0.22
same,Δp,[1]; [11],0.3 bar
same,Acetate (NMR),[1]; [12],5067 mg/L
same,Ethanol (NMR),[1]; [12],150 mg/L
same,OD600,[1]; [12],0.22
same,Δp,[1]; [12],0.3 bar
same,concentrations of ethanol and acetate,"[2]; 0.1 g/L compared with 0.4 g/L L-cysteine-HCl, after 92.3 h",higher
same,Acetate (NMR),[2]; [13],13 mg/L
same,Ethanol (NMR),[2]; [13],6 mg/L
same,OD600,[2]; [13],0.25
same,Acetate (NMR),[2]; [14],1418 mg/L
same,Ethanol (NMR),[2]; [14],19 mg/L
same,OD600,[2]; [14],0.25
same,Δp,[2]; [14],0.6 bar
same,Acetate (NMR),[2]; [15],2556 mg/L
same,Ethanol (NMR),[2]; [15],130 mg/L
same,OD600,[2]; [15],0.30
same,Δp,[2]; [15],0.6 bar
same,OD600,[2]; [16],0.30
same,Δp,[2]; [16],0.6 bar
same,Acetate (NMR),[2]; [17],6960 mg/L
same,Ethanol (NMR),[2]; [17],321 mg/L
same,OD600,[2]; [17],0.26
same,Δp,[2]; [17],0.4 bar
same,total gas consumption,"[2]; reactor 1 with 0.1 g/L compared with reactor with 0.4 g/L L-cysteine-HCl, over 92.3 h",higher
same,Acetate (NMR),[2]; [18],15 mg/L
same,Ethanol (NMR),[2]; [18],8 mg/L
same,OD600,[2]; [18],0.24
same,Acetate (NMR),[2]; [19],2331 mg/L
same,Ethanol (NMR),[2]; [19],27 mg/L
same,OD600,[2]; [19],0.23
same,Δp,[2]; [19],0.6 bar
same,Acetate (NMR),[2]; [20],3197 mg/L
same,Ethanol (NMR),[2]; [20],128 mg/L
same,OD600,[2]; [20],0.26
same,Δp,[2]; [20],0.5 bar
same,OD600,[2]; [21],0.22
same,Δp,[2]; [21],0.3 bar
same,Acetate (NMR),[2]; [22],5067 mg/L
same,Ethanol (NMR),[2]; [22],150 mg/L
same,OD600,[2]; [22],0.22
same,Δp,[2]; [22],0.3 bar

# Reference: patent publication US20160177259A1, “[…]” (Evonik Degussa GmbH, priority 2014, published 2016)
